From patent publication US20200245620A1 (priority 2018, published 2020)
≈ marks a conversion by molar mass, not a printed value.

Test system: Fusarium graminearum
Test: microbe, parasite or virus in culture
Assay type: cell-based
Conditions: for EC50: Fusarium graminearum

Row | SMILES | inhibitory activity on the growth in vitro (sensitive and fungicide-resistant strains, alone or mixed with ipconazole) | EC50 (F.g carbendazim-resistant strains) [µg/mL] | EC50 (F.g phenamacril-resistant strains) [µg/mL]
1 | OCC1=C[C@H](N[C@H]2C[C@H](CO)[C@@H](O[C@@H]3O[C@H](CO)[C@@H](O)[C@H](O)[C@H]3O)[C@H](O)[C@H]2O)[C@H](O)[C@@H](O)[C@@H]1O [Jinggangmycin] | almost does not have inhibitory activity |  | 
2 | CC(C)C1CCC(Cc2ccc(Cl)cc2)C1(O)Cn1cncn1 (stereo not drawn) [Ipconazole] |  | 0.946 (≈ 2.83 µM) | 0.101 (≈ 0.303 µM)
